In PubChem BioAssay (NCI):
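In this assay, cells in 96-well plates receive the compound at five concentrations for 48 hours. Endpoints are linearly interpolated between the surrounding concentrations. TGI denotes the concentration required for complete inhibition of growth.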

Key:
Experiment in all cases: inhibition of tumour cell growth, NCI panel, 48 h
A498 renal = test system: A498 renal
HCC-2998 colon = test system: HCC-2998 colon
HOP-62 NSCLC = test system: HOP-62 NSCLC
HS 578T breast = test system: HS 578T breast
K-562 leukemia = test system: K-562 leukemia
NCI-H226 lung = test system: NCI-H226 lung
NCI-H460 lung = test system: NCI-H460 lung
NCI/ADR-RES ovarian = test system: NCI/ADR-RES ovarian
OVCAR-5 ovarian = test system: OVCAR-5 ovarian
SF-268 CNS = test system: SF-268 CNS
SF-295 CNS = test system: SF-295 CNS
SF-539 CNS = test system: SF-539 CNS
SK-MEL-2 melanoma = test system: SK-MEL-2 melanoma
SK-MEL-28 melanoma = test system: SK-MEL-28 melanoma
U251 CNS = test system: U251 CNS
UO-31 renal = test system: UO-31 renal

| Structure (SMILES) | TGI (A498 renal) [µM] | TGI (HCC-2998 colon) [µM] | TGI (HOP-62 NSCLC) [µM] | TGI (HS 578T breast) [µM] | TGI (K-562 leukemia) [µM] | TGI (NCI-H226 lung) [µM] | TGI (NCI-H460 lung) [µM] | TGI (NCI/ADR-RES ovarian) [µM] | TGI (OVCAR-5 ovarian) [µM] | TGI (SF-268 CNS) [µM] | TGI (SF-295 CNS) [µM] | TGI (SF-539 CNS) [µM] | TGI (SK-MEL-2 melanoma) [µM] | TGI (SK-MEL-28 melanoma) [µM] | TGI (U251 CNS) [µM] | TGI (UO-31 renal) [µM] |
| --- | --- | --- | --- | --- | --- | --- | --- | --- | --- | --- | --- | --- | --- | --- | --- | --- |
| Cc1nc(N)c(N2CCN(S(N)(=O)=O)CC2)c(=O)[nH]1 | > 100 | > 100 | > 100 | > 100 | > 100 | > 100 | > 100 | > 100 | > 100 | > 100 | > 100 | > 100 | > 100 | > 100 | > 100 | > 100 |
| CCCCCCCCCCCCCCCCP(=O)(O)OCC(N)C(=O)O (centres undefined) | 52.2 | > 100 | 47.9 | > 100 | > 100 | > 100 | 64.9 | > 100 | 65.1 | 74 | 44.8 | 72.3 | 78.7 | > 100 | > 100 | 31.7 |
| C1C2CC3CC1CC(c1nn4c(C56CC7CC(CC(C7)C5)C6)nnc4s1)(C2)C3 | > 100 | > 100 | > 100 | > 100 | > 100 | > 100 | > 100 | > 100 | > 100 | > 100 | > 100 | > 100 | > 100 | > 100 | > 100 | > 100 |
| CC(=O)c1c(-c2ccc(Cl)cc2)c(-c2ccc(Cl)cc2)n[nH]c1=O | 77.4 | > 100 |  | > 100 | > 100 | > 100 | > 100 | > 100 | > 100 | > 100 | > 100 | 64.2 | 81.3 | > 100 | > 100 |  |
| COc1ccc(CNc2ccn(C3OC(CO)C(O)C3O)c(=O)n2)cc1 (centres undefined) | > 100 | > 100 | > 100 | > 100 | > 100 | > 100 | > 100 | > 100 | > 100 | > 100 | > 100 | > 100 | > 100 | > 100 | > 100 | > 100 |
| CC(NC(=O)OCc1ccccc1)NC(=O)OC(C)(C)C (centres undefined) | > 100 | > 100 | > 100 | > 100 | > 100 | > 100 | > 100 | > 100 | > 100 | > 100 | > 100 | > 100 | > 100 | > 100 | > 100 | > 100 |
| CC(C)CCCC(C)[C@H]1CC[C@H]2n3c(nnc3-c3ccccc3)CCC[C@]12C (some centres undefined) | 31.8 | 0.0669 | 37.5 | 43.3 | 13.6 | 37.5 | 24.1 | 24 |  | 28.2 | 21.9 | 25.1 | 29.8 | 37.1 | 23.5 | 23.2 |
| O=C1c2c(Br)sc(Br)c2C(NC(=O)C(F)(F)F)C1O (centres undefined) | > 100 | 32.6 |  | > 100 | > 100 | 79.8 | 36 | 75.2 | 39.6 | > 100 | 35.7 | 32.1 | 40.9 | 43.7 | 37.4 | 56.7 |
